# Test results reported in ChEMBL document CHEMBL4610120, “New Broad-Spectrum Antibiotics Containing a Pyrrolobenzodiazepine Ring with Activity against Multidrug-Resistant Gram-Negative Bacteria” (J Med Chem, 2020).
# Legend:
# [1] = Selectivity ratio of cytotoxicity against human WI38 cells to MIC for methicillin sensitive Staphylococcus aureus NCTC 6571; type: toxicity, cell-based
# [2] = Selectivity ratio of cytotoxicity against human WI38 cells to MIC for multidrug-resistant Klebsiella pneumoniae NCTC 13368; type: toxicity, cell-based
# [3] = tested on: DNA; experiment: Stabilization of 5'-FAM-TAT-AGA-TAT-AGA-TAT-TTT-ATA-TCT-ATA-TCT-ATA-3'-TAMRA DNA (unknown origin) assessed as reduction in change in melting temperature at 1:1 to 5:1 ligand to DNA ratio measured after 3 hrs by FRET-based assay relative to control; type: ADME, nucleic-acid assay
# [4] = tested on: Acinetobacter baumannii; experiment: Antimicrobial activity against Acinetobacter baumannii ATCC 17978 by microdilution broth method; type: functional
# [5] = tested on: Enterococcus faecalis; experiment: Antibacterial activity against vancomycin resistant Enterococcus faecalis NCTC 12201 by microdilution broth method; type: functional
# [6] = Cytotoxicity against human WI38 cells assessed as cell viability at 20 uM measured after 24 hrs by MTT assay relative to control; type: cell-based, WI-38; conditions: read-out: Activity
# [7] = Selectivity ratio of cytotoxicity against human WI38 cells to MIC for Klebsiella pneumoniae M6; type: toxicity, cell-based
# [8] = Selectivity ratio of cytotoxicity against human WI38 cells to MIC for vancomycin resistant Enterococcus faecalis NCTC 12201; type: toxicity, cell-based
# [9] = Selectivity ratio of cytotoxicity against human WI38 cells to MIC for Acinetobacter baumannii ATCC 17978; type: toxicity, cell-based
# [10] = Selectivity ratio of cytotoxicity against human WI38 cells to MIC for vancomycin sensitive Enterococcus faecalis NCTC 775; type: toxicity, cell-based
# [11] = tested on: Enterococcus faecalis; experiment: Antibacterial activity against vancomycin sensitive Enterococcus faecalis NCTC 775 by microdilution broth method; type: functional
# [12] = tested on: Staphylococcus aureus; experiment: Antibacterial activity against methicillin sensitive Staphylococcus aureus NCTC 6571 by microdilution broth method; type: functional
# [13] = tested on: Pseudomonas aeruginosa; experiment: Antimicrobial activity against Pseudomonas aeruginosa PAO1 by microdilution broth method; type: functional
# [14] = tested on: Klebsiella pneumoniae; experiment: Antimicrobial activity against Klebsiella pneumoniae M6 by microdilution broth method; type: functional
# [15] = Selectivity ratio of cytotoxicity against human WI38 cells to MIC for methicillin resistant Staphylococcus aureus NCTC 13616; type: toxicity, cell-based
# [16] = Selectivity ratio of cytotoxicity against human WI38 cells to MIC for Pseudomonas aeruginosa PAO1; type: toxicity, cell-based
# [17] = tested on: Pseudomonas aeruginosa; experiment: Antimicrobial activity against multidrug-resistant Pseudomonas aeruginosa NCTC 13437 by microdilution broth method; type: functional
# [18] = tested on: Klebsiella pneumoniae; experiment: Antimicrobial activity against multidrug-resistant Klebsiella pneumoniae NCTC 13368 by microdilution broth method; type: functional
# [19] = Selectivity ratio of cytotoxicity against human WI38 cells to MIC for methicillin resistant Staphylococcus aureus NCTC 13277; type: toxicity, cell-based
# [20] = tested on: DNA; experiment: Stabilization of 5'-FAM-TAT-ATA-TAG-ATA-TTT-TTT-TAT-CTA-TAT-ATA-3'-TAMRA DNA (unknown origin) assessed as reduction in change in melting temperature at 1:1 to 5:1 ligand to DNA ratio measured after 3 hrs by FRET-based assay relative to control; type: ADME, nucleic-acid assay
# [21] = tested on: Enterococcus faecium; experiment: Antibacterial activity against vancomycin resistant Enterococcus faecium NCTC 12204 by microdilution broth method; type: functional
# [22] = tested on: Acinetobacter baumannii; experiment: Antimicrobial activity against multidrug-resistant Acinetobacter baumannii AYE by microdilution broth method; type: functional
# [23] = tested on: Staphylococcus aureus; experiment: Antibacterial activity against methicillin resistant Staphylococcus aureus NCTC 13277 by microdilution broth method; type: functional
# [24] = Selectivity ratio of cytotoxicity against human WI38 cells to MIC for multidrug-resistant Pseudomonas aeruginosa NCTC 13437; type: toxicity, cell-based
# [25] = tested on: Staphylococcus aureus; experiment: Antibacterial activity against methicillin resistant Staphylococcus aureus NCTC 13616 by microdilution broth method; type: functional
# [26] = Selectivity ratio of cytotoxicity against human WI38 cells to MIC for multidrug-resistant Acinetobacter baumannii AYE; type: toxicity, cell-based
# [27] = Selectivity ratio of cytotoxicity against human WI38 cells to MIC for vancomycin resistant Enterococcus faecium NCTC 12204; type: toxicity, cell-based
smiles,measurement,setting,value
CCN(CC)C(=O)c1cc2cc(NC(=O)c3cc(NC(=O)CCCOc4cc5c(cc4OC)C(=O)N4CCC[C@H]4C=N5)cn3C)ccc2o1,selectivity ratio,[1],100
same,selectivity ratio,[2],10
same,fold change (FC),[3],3 to 4
same,MIC,[4],4 µg/mL
same,MIC,[5],≤ 0.125 µg/mL
same,"viability at 24 h, 20 µM",[6],> 85%
same,selectivity ratio,[7],10
same,selectivity ratio,[8],100
same,selectivity ratio,[9],10
same,selectivity ratio,[10],100
same,MIC,[11],0.25 µg/mL
same,MIC,[12],≤ 0.125 µg/mL
same,MIC,[13],128 µg/mL
same,MIC,[14],8 µg/mL
same,selectivity ratio,[15],100
same,selectivity ratio,[16],10
same,MIC,[17],32 µg/mL
same,MIC,[18],64 µg/mL
same,selectivity ratio,[19],100
same,fold change (FC),[20],3 to 4
same,MIC,[21],≤ 0.125 µg/mL
same,MIC,[22],4 µg/mL
same,MIC,[23],0.5 µg/mL
same,selectivity ratio,[24],10
same,MIC,[25],0.25 µg/mL
same,selectivity ratio,[26],10
same,selectivity ratio,[27],100
COc1cc2c(cc1OCCCC(=O)Nc1cc(C(=O)Nc3ccc(-c4cc(C(=O)N(C)C)n(C)c4)cc3)n(C)c1)N=C[C@@H]1CCCN1C2=O,selectivity ratio,[1],100
same,selectivity ratio,[2],10
same,fold change (FC),[3],3 to 4
same,MIC,[4],4 µg/mL
same,MIC,[5],≤ 0.125 µg/mL
same,"viability at 24 h, 20 µM",[6],> 85%
same,selectivity ratio,[7],10
same,selectivity ratio,[8],100
same,selectivity ratio,[9],10
same,selectivity ratio,[10],100
same,MIC,[11],≤ 0.125 µg/mL
same,MIC,[12],≤ 0.125 µg/mL
same,MIC,[13],128 µg/mL
same,MIC,[14],2 µg/mL
same,selectivity ratio,[15],100
same,selectivity ratio,[16],10
same,MIC,[17],> 128 µg/mL
same,MIC,[18],8 µg/mL
same,selectivity ratio,[19],100
same,fold change (FC),[20],3 to 4
same,MIC,[21],≤ 0.125 µg/mL
same,MIC,[22],4 µg/mL
same,MIC,[23],≤ 0.125 µg/mL
same,selectivity ratio,[24],10
same,MIC,[25],≤ 0.125 µg/mL
same,selectivity ratio,[26],10
same,selectivity ratio,[27],100
COc1cc2c(cc1OCCCC(=O)Nc1cc(C(=O)Nc3ccc(-c4cc(C(=O)N5CCSCC5)n(C)c4)cc3)n(C)c1)N=C[C@@H]1CCCN1C2=O,selectivity ratio,[1],100
same,selectivity ratio,[2],10
same,fold change (FC),[3],3 to 4
same,MIC,[4],2 µg/mL
same,MIC,[5],≤ 0.03 µg/mL
same,"viability at 24 h, 20 µM",[6],> 85%
same,selectivity ratio,[7],10
same,selectivity ratio,[8],100
same,selectivity ratio,[9],10
same,selectivity ratio,[10],100
same,MIC,[11],≤ 0.03 µg/mL
same,MIC,[12],≤ 0.03 µg/mL
same,MIC,[13],> 32 µg/mL
same,MIC,[14],4 µg/mL
same,selectivity ratio,[15],100
same,selectivity ratio,[16],10
same,MIC,[17],> 32 µg/mL
same,MIC,[18],> 32 µg/mL
same,selectivity ratio,[19],100
same,fold change (FC),[20],3 to 4
same,MIC,[21],≤ 0.03 µg/mL
same,MIC,[22],2 µg/mL
same,MIC,[23],0.06 µg/mL
same,selectivity ratio,[24],10
same,MIC,[25],≤ 0.03 µg/mL
same,selectivity ratio,[26],10
same,selectivity ratio,[27],100
COc1cc2c(cc1OCCCC(=O)Nc1cc(C(=O)Nc3ccc(-c4cc(C(=O)N5CCOCC5)n(C)c4)cc3)n(C)c1)N=C[C@@H]1CCCN1C2=O,selectivity ratio,[1],100
same,selectivity ratio,[2],10
same,fold change (FC),[3],3 to 4
same,MIC,[4],4 µg/mL
same,MIC,[5],≤ 0.125 µg/mL
same,"viability at 24 h, 20 µM",[6],> 85%
same,selectivity ratio,[7],10
same,selectivity ratio,[8],100
same,selectivity ratio,[9],10
same,selectivity ratio,[10],100
same,MIC,[11],≤ 0.125 µg/mL
same,MIC,[12],≤ 0.125 µg/mL
same,MIC,[13],> 128 µg/mL
same,MIC,[14],2 µg/mL
same,selectivity ratio,[15],100
same,selectivity ratio,[16],10
same,MIC,[17],> 128 µg/mL
same,MIC,[18],32 µg/mL
same,selectivity ratio,[19],100
same,fold change (FC),[20],3 to 4
same,MIC,[21],≤ 0.125 µg/mL
same,MIC,[22],2 µg/mL
same,MIC,[23],≤ 0.125 µg/mL
same,selectivity ratio,[24],10
same,MIC,[25],≤ 0.125 µg/mL
same,selectivity ratio,[26],10
same,selectivity ratio,[27],100
COc1cc2c(cc1OCCCC(=O)Nc1cc(C(=O)Nc3ccc4oc(C(=O)N(C)C)cc4c3)n(C)c1)N=C[C@@H]1CCCN1C2=O,selectivity ratio,[1],100
same,selectivity ratio,[2],10
same,fold change (FC),[3],3 to 4
same,MIC,[4],4 µg/mL
same,MIC,[5],0.5 µg/mL
same,"viability at 24 h, 20 µM",[6],> 85%
same,selectivity ratio,[7],10
same,selectivity ratio,[8],100
same,selectivity ratio,[9],10
same,selectivity ratio,[10],100
same,MIC,[11],≤ 0.125 µg/mL
same,MIC,[12],≤ 0.125 µg/mL
same,MIC,[13],128 µg/mL
same,MIC,[14],0.5 µg/mL
same,selectivity ratio,[15],100
same,selectivity ratio,[16],10
same,MIC,[17],64 µg/mL
same,MIC,[18],16 µg/mL
same,selectivity ratio,[19],100
same,fold change (FC),[20],3 to 4
same,MIC,[21],≤ 0.125 µg/mL
same,MIC,[22],4 µg/mL
same,MIC,[23],≤ 0.125 µg/mL
same,selectivity ratio,[24],10
same,MIC,[25],≤ 0.125 µg/mL
same,selectivity ratio,[26],10
same,selectivity ratio,[27],100
COc1cc2c(cc1OCCCC(=O)Nc1cc(C(=O)Nc3ccc(-c4cc(C(=O)N5CCCCC5)n(C)c4)cc3)n(C)c1)N=C[C@@H]1CCCN1C2=O,selectivity ratio,[1],100
same,selectivity ratio,[2],10
same,fold change (FC),[3],3 to 4
same,MIC,[4],2 µg/mL
same,MIC,[5],≤ 0.03 µg/mL
same,"viability at 24 h, 20 µM",[6],> 85%
same,selectivity ratio,[7],10
same,selectivity ratio,[8],100
same,selectivity ratio,[9],10
same,selectivity ratio,[10],100
same,MIC,[11],0.125 µg/mL
same,MIC,[12],≤ 0.03 µg/mL
same,MIC,[13],> 128 µg/mL
same,MIC,[14],16 µg/mL
same,selectivity ratio,[15],100
same,selectivity ratio,[16],10
same,MIC,[17],> 128 µg/mL
same,MIC,[18],> 128 µg/mL
same,selectivity ratio,[19],100
same,fold change (FC),[20],3 to 4
same,MIC,[21],≤ 0.03 µg/mL
same,MIC,[22],2 µg/mL
same,MIC,[23],0.125 µg/mL
same,selectivity ratio,[24],10
same,MIC,[25],0.06 µg/mL
same,selectivity ratio,[26],10
same,selectivity ratio,[27],100
